{"source": "patent US20050196379A1", "about": "“Combination therapies with L-FMAU for the treatment of hepatitis B virus infection” (priority 2002, published 2005)", "origin": "cited, not measured here", "key": {"[1]": {"tested_on": "woodchuck hepatitis B virus (WHV)", "conditions": "for drop of viral titers in serum: single drug, previous studies, same time frame (two weeks)"}, "hepatitis B virus": {"tested_on": "hepatitis B virus", "conditions": "in vivo"}}, "data": [{"compound": "Cc1cn([C@H]2O[C@@H](CO)[C@H](O)[C@H]2F)c(=O)[nH]c1=O", "note": "[L-FMAU, 1-(2′-deoxy-2′-fluoro-β-L-arabinofuranosyl)-thymine]", "values": [{"measurement": "average decrease in CCC DNA", "setting": "[1]; L-FMAU alone, Peek et al.", "result": 10, "unit": "fold"}, {"measurement": "drop of viral titers in serum", "setting": "[1]", "result": "~1,000 fold"}, {"measurement": "number of infected hepatocytes", "setting": "[1]; woodchuck model", "result": "decrease rapidly the number of infected hepatocytes"}]}, {"compound": "β-2-hydroxymethyl-5-(5-fluorocytosin-1-yl)-1,3-oxathiolane [β-L-FTC]", "values": [{"measurement": "drop of viral titers in serum", "setting": "[1]", "result": "about 56 fold"}, {"measurement": "effect on viral replication and viral clearance", "setting": "[1]; woodchuck model of HBV", "result": "inhibit viral replication but not induce viral clearance"}, {"measurement": "activity against hepatitis B virus in duck models", "setting": "hepatitis B virus", "result": "strong activity"}]}]}
